# Source: patent publication US12350267B2, “Bile acid recycling inhibitors for treatment of pediatric cholestatic liver diseases” (SHIRE HUMAN GENETIC THERAPIES, INC., priority 2011, dated 2025)
# Tests used:
# [1] = test system: fecal bile acid excretion and plasma bile acid concentrations; assay: ZDF rat study of 264W94: fecal bile acid excretion and plasma bile acid concentrations; format: in vivo, Male Zucker diabetic fatty rats (ZDF/GmiCrl-fa/fa); conditions: 2 weeks
# Description: Animal preparation. Male Zucker diabetic fatty rats (ZDF/GmiCrl-fa/fa) were purchased from Charles River (Raleigh, NC) and housed under controlled conditions (12:12 light-dark cycle, 24° C. and 50% relative humidity) with free access to rodent food (Purina 5008, Harlan Teklad, Indianapolis, IN). All rats arrived at seven weeks of age (±3 days). After a one-week acclimation period, rats were anesthetized with isoflurane (Abbott Laboratories, IL) and tail-vein blood samples were collected at 9 am without fasting. Blood glucose levels were measured using a glucometer (Bayer, Leverkusen, Germany). In order to ensure balanced treatment groups, ZDF rats were assigned to six treatment groups based upon baseline glucose: vehicle (0.5% HPMC, 0.1% Tween80) and five doses of 264W94 (0.001, 0.01, 0.1, 1, 10 mg/kg). All treatments were given via oral gavage twice a day and animals were followed for two weeks with blood samples collected from tail vein at the end of each week at 9 am without fasting. Fecal samples were collected for 24 hours during the second week of treatment.
# Measurement of clinical chemistry parameters. Non-esterified fatty acids (NEFA), bile acids, and bile acids in fecal extraction were measured using the Olympus AU640 clinical chemistry analyzer (Beckman Coulter, Irving, TX).
# [2] = Pharmacokinetics of LUM001 in pediatric subjects (study NB-00-02-014); format: in vivo; conditions: measured on day eight
# Description: LUM001 has been administered to forty patients under the age of 18 years old. […] The drug was administered once-a-day (QD) in the morning for fourteen days. […] These doses are similar to those using to treat children with cholestatic diseases.
# [3] = test system: Postprandial Total Serum Bile Acids; conditions: dog; previous experiments (2); cited from earlier work
# [4] = test system: serum bile acids and fecal bile acids; assay: Phase 1 ascending multiple oral doses of LUM001 in healthy subjects: serum and fecal bile acids; format: in vivo; conditions: healthy adult subjects; multiple oral doses qAM, 28 days
# Description: A Randomized, Double-Blind, Placebo Controlled, Safety, Tolerability, Pharmacokinetic, and Pharmacodynamic Study of Ascending Multiple Oral Doses of LUM001 in Healthy Subjects
# This Phase 1 study was a randomized, double-blind, placebo-controlled study of ascending multiple oral doses of LUM001 in healthy, adult subjects. This study was conducted at a single center. There were 13 LUM001 dosing panels: 10, 20, 60, 100, and 20 mg every morning (qAM) (2) (i.e., the regimen was tested a second time in the study), 5 mg every evening (qPM), 0.5, 1, 2.5, 5, 2.5 (2), 5 (2), and 0.5 to 5 mg qAM dose titration. Most of the dosing panels included subjects treated with matching placebo. […]
# SBA were analyzed as part of the routine clinical analysis of the serum samples collected at each time point.
# Fecal Bile Acid Analysis: Fecal samples were collected for all panels except the dose-titration panel, 2.5 (2) and 5 mg (2), on Days 9 through 14 and 23 through 28 (data shown in FIG. 4). Twenty-four hour FBA excretions were quantified by Pharmacia for Days 9 through 14 and 23 through 28. […] The weight of each 24-hour fecal collection was recorded on the CRFs. […]
# An aliquot for each 24-hour fecal sample collected on Days 23 through 28 was combined, homogenized, and analyzed for bile acid species concentrations by ANAPHARM. […]
# [5] = test system: Postprandial Total Serum Bile Acids; assay: Time to onset of activity of LUM001 on postprandial serum bile acids in dogs; format: in vivo, Beagle dogs; conditions: dog; dose increased above ED50 level to 1 mg/kg
# Description: Animal Study on the Duration of Action and Time to Onset of ASBTI Activity of a Single Oral Dose of LUM001 on Postprandial Total Serum Bile Acids in Beagle Dogs
# Test Compound: LUM001—Form I
# (§1) Dosage preparation and administration: LUM001 was dissolved in water at concentrations that required the administration of 0.2 ml/kg of solution. Solutions were placed into gelatin capsules, Torpac Inc., size 13 Batch 594, East Hanover NJ, and administered orally.
# (§2) Dogs: Male beagle dogs were obtained from Covance Research Products, Cumberland VA or Marshall Farms USA, Inc., North Rose NY. A total of 20 dogs, 1 to 5 years old, 6.8 to 15.6 kg body weight, were used in these experiments. The dogs were conditioned to a 12 hour light/dark cycle and maintained on a feeding restriction of 1 hour per day access to food (Richman Standard Certified Canine Diet #5007, PMI Nutrition, Inc., St Louis MO) from 7 to 8 AM. They were trained to eat a special meal promptly within 20 minutes when presented (1 can. 397 g, Evanger's 100% Beef for Dogs, Evanger's Dog and Cat Food Co., Inc., Wheeling IL, mixed with 50 g of sharp cheddar cheese).
# Serum Total Bile Acid (SBA) Measurement: SBA was measured by an enzymatic assay. SBA values are expressed as μg of total bile acids/ml of serum. […]
# [6] = test system: Postprandial Total Serum Bile Acids; assay: Duration of action of LUM001 on dog serum bile acids, Method 2 (dosing before feeding); format: in vivo, Beagle dogs; conditions: dogs n=9, 0.05 mg/kg (2nd dose column), dosing time 0 hr, feeding time 2 hr
# Description: as §1, §2
# Serum Total Bile Acid (SBA) Measurement: SBA was measured by an enzymatic assay. SBA values are expressed as μg of total bile acids/ml of serum.
# Experiments to Measure the Duration of Action of LUM001: In dogs a single experimental meal produces a postprandial rise in SBA that is elevated to a peak at 1 hour after feeding and constant for an additional 3 hours. Previous experiments (2) indicate that LUM001 remains active for more than 4.5 hours. […]
# plasma bile acid levels = assay: Plasma bile acid levels of ZDF rats after ascending doses of SC-435 and LUM002; format: in vivo, Male ZDF rats; conditions: ZDF rats n=4; oral gavage twice a day for 2 weeks; all doses (SC-435 1, 10 or 30 mg/kg; LUM002 0.3, 1, 3, 10 or 30 mg/kg)
# Description: (§3) FIG. 2. Plasma bile acid levels of ZDF rats after administration of ascending doses of SC-435 and LUM002. Male ZDF rats (n=4) were administered vehicle, SC-435 (1, 10 or 30 mg/kg) or LUM002 (0.3, 1, 3, 10 or 30 mg/kg) by oral gavage twice a day for 2 weeks. Plasma bile acid levels were determined at the end of the second week. Data are expressed as mean values±SEM.
# as §3, with “Plasma” for “FIG. 2. Plasma”, “week. […]” for “week.”
# [7] = ZDF rats, oral gavage twice a day
structure (smiles),measurement,setting,value
CCCC[C@]1(CC)CS(=O)(=O)c2cc(OC)c(OC)cc2[C@@H](c2ccccc2)N1 [Compound 264W94],Fecal bile acid concentrations elevated compared to vehicle treated rats,"[1]; 0.001-10 mg/kg oral gavage twice a day, maximum elevation (up to)",up to 6.5 fold
same,Plasma bile acid concentrations,"[1]; ZDF rats, 0.001-10 mg/kg oral gavage twice a day",decreased dose-dependently
same,ED50 for elevation of fecal bile acid concentrations,[1]; [7],0.17 mg/kg
same,Fecal NEFA,[1]; [7],slightly increased
CCCCC1(CCCC)CS(=O)(=O)c2ccc(N(C)C)cc2[C@@H](c2ccc(OCc3ccc(C[N+]45CCN(CC4)CC5)cc3)cc2)[C@H]1O [LUM001],Average serum drug exposure,"[2]; Subject 0510, 5.0 mg QD (168.4 μg/kg)","0,0 ng/ml"
same,Systemic exposure / absorption by the children,"[2]; patients under 18, QD in the morning",minimally absorbed
same,Time LUM001 remains active (previous experiments),[3],more than 4.5 hours
same,Fecal bile acids,[4],significant increase
same,Serum bile acids,[4],significant reduction
same,Onset time to significant SBA lowering versus ED50 dose,[5],did not shorten
same,"Serum Bile Acid, Mean",[6],1.7 µg/mL
CCCC[C@]1(CC)CS(=O)(=O)c2ccc(N(C)C)cc2[C@@H](c2cccc(NC(=O)N[C@@H]3O[C@H](COS(=O)(=O)[O-])[C@@H](O)[C@H](OCc4ccccc4)[C@H]3O)c2)[C@H]1O.[K+] [LUM002],Plasma bile acid levels,plasma bile acid levels,decreased
"CCCCC1(CCCC)CS(=O)(=O)c2ccc(N(C)C)cc2[C@@H](c2ccc(OCCCC[N+]34CCN(CC3)CC4)cc2)[C@H]1O.CS(=O)(=O)[O-] [SC-435, 1-[4-[4-[(4R,5R)-3,3-dibutyl-7-(dimethylamino)-2,3,4,5-tetrahydro-4-hydroxy-1,1-dioxido-1-benzothiepin-5-yl]phenoxy]butyl]4-aza-1-azoniabicyclo[2.2.2]octane methanesulfonate salt, reference compound]",Plasma bile acid levels,plasma bile acid levels,decreased
